“Also recorded” adds a separate entry of the source.
Assays:
Format in all cases: cell-based, human
kidney organoids [1] = experiment: Abundance of vasculature in kidney organoids, PECAM1/CD31 immunostaining and Angiotool; conditions: for effect on vasculature formation / vascular growth (summary of studies): FBS 1.5 to 2%; for effect on the CD31+ population of cells (extent and abundance of vasculature): developing organoids age 11-14 Days, additives in advanced RPMI, static and perfused conditions; for vessel % area: high FSS, endogenous VEGF vs VEGF addition vs VEGF inhibition
Procedure: Methods: To determine effects of chemical additives on the developing developing organoids, the vesicles (age 11, 12, 13 and 14 Days) were treated with VEGF additives, GMEC media, PMA additives, antibiotics, or FBS or FCS additives and other components in advanced RPMI media as a base in both static and perfused conditions. The extent and abundance of vasculature was studied using immunostaining.
Confocal Z-stacks of PECAM1 were taken of fixed whole mount organoids, both iPSC and ESC derived, in the various culture conditions. The Z-stacks were taken at the limit of the confocal depth with each sample, roughly […] per sample which represents approximately the same volume per organoid analyzed. Those z-stacks were then flattened using ImageJ to a 2D max intensity projection (as required by the Angiotool for input). The default settings were employed on the Angiotool for analysis and vessel diameters of 4, 7, 10, and 14 were analyzed for each organoid. In all cases, the whole organoid was used for analysis.

kidney organoids [2] = experiment: Association of PECAM1+ vasculature with LTL+ tubules, Imaris analysis; conditions: for vasculotubular association (percent of vasculature surface area overlapping with LTL+ tubules): 10 days of high flow culture, VEGF 100 ng/mL or VEGF inhibitor in the media
From the text: Additionally, enhanced PECAM1^+ networks under high FSS associate with tubular structures in both transverse and longitudinal orientations (FIG. 16(d) and FIG. 17). The researchers quantified the association between PECAM1^+ networks and LTL^+tubules using Imaris surface rendering, distance transformation, and masking tools and reveal that under high flow conditions the percent of vascular surface area in contact with tubules is increased nearly 3 fold in comparison to organoids in static culture (FIG. 17(d)).
Confocal Z-stacks of PECAM1 and LTL were taken of fixed whole mount organoids, both iPSC and ESC derived, in the various culture conditions. The Z-stacks were taken at the limit of the confocal depth with each sample, roughly […] per sample which represents approximately the same volume per organoid analyzed. Those z-stacks were then opened in Imaris imaging software. The confocal 3D rendering was turned into a vascular surface and a tubule surface. Then the Imaris surface on surface area contact tool was used to quantify the percent overlap between the vascular and tubular surfaces in 3D, values were reported in FIG. 17(d). In order to assess the average distance the vasculature was away from a tubule, first an Imaris distance transformation was performed on the tubule surface. Then the resulting channel was masked by the vascular surface to create a new masked distance transformation channel. That masked distance transformation channel was opened in Fiji (ImageJ) to retrieve a histogram of all the 3D points, from which we obtained a geometric mean for each sample which is reported in FIG. 17(c).

[3] = test system: PODXL+ glomeruli-like compartments of kidney organoids; experiment: Vascular invasion of PODXL+ podocyte clusters in kidney organoids on chip, confocal imaging; conditions: high FSS, 10 days on chip; bevacizumab, VEGF 100 ng/mL
From the text: Glomerular structures of kidney organoids in static culture are largely avascular. Upon animal transplantation, host-derived vascularization of kidney organoids Promotes glomerular vascularization. To determine whether FSS-induced vascularization of organoids in vitro extends to glomerular compartments, PODXL^+ podocyte clusters invaded by MCAMI^+ PECAM1^+ vascular structures were quantified using confocal imaging, in static and high FSS conditions (FIG. 18A and FIG. 18B). […] Given that there is significant upregulation of VEGF-A expression with high FSS (FIG. 18C), organoids cultured under flow can be used to study the role of VEGF in glomerular vascularization in vitro.
As vessel % area is unchanged between endogenous VEGF, VEGF addition, and VEGF inhibition, the difference in glomerular vascularization cannot be attributed to increased abundance of vasculature alone. Meanwhile, the reduced junctional density and increased average vessel length in unperturbed VEGF conditions may be interpreted as vessels growing towards an endogenous VEGF gradient versus more random sporadic growth in the absence of a gradient. Growing with the endogenous VEGF gradient under high flow conditions may allow vessels to reach glomeruli-like compartments in time to invade rather than wrap Bowman's capsule-like structures. […]

Row | Compound | effect on vasculature formation / vascular growth (summary of studies) (kidney organoids [1]) | effect on the CD31+ population of cells (extent and abundance of vasculature) (kidney organoids [1]) | vasculotubular association (percent of vasculature surface area overlapping with LTL+ tubules) (kidney organoids [2]) | incidence of invasion of PODXL+ glomeruli-like compartments by PECAM1+MCAM+ vascular networks [3] | vessel % area (kidney organoids [1]) | average distance in 3D between the vasculature and the tubules (kidney organoids [2]; high flow+VEGF compared with static) | outgrowth of endothelial-like cells (kidney organoids [1]; addition of VEGF) | vascular abundance (kidney organoids [1]; culture under FSS, VEGF added in the media) | vascular abundance (kidney organoids [1]; static culture, exogenous VEGF)
1 | CCCCCCCCCCCCCC(=O)O[C@@H]1[C@@H](C)[C@@]2(O)[C@@H](C=C(CO)C[C@]3(O)C(=O)C(C)=C[C@@H]23)[C@@H]2C(C)(C)[C@]12OC(C)=O [PMA, reference compound] | did not help | no measureable effects | – | – | – | – | – | – | –
2 | bevacizumab [reference compound] | – | – | decouples these associations and returns values consistent with static culture levels; also recorded: negated | significantly reduced | unchanged | – | – | – | –
3 | vascular endothelial growth factor [VEGF] | did not help | no measureable effects | decouples these associations and returns values consistent with static culture levels; also recorded: negated | significantly reduced | unchanged | not statistically significantly different | robust outgrowth of endothelial-like cells | didn't change | did increase
